US4906621A, “Certain 2-carboxypiperidyl-alkylene phosphonic acids and esters thereof useful for the treatment of disorders responsive to N-methyl-D-aspartate receptor blockade” (Ciba-Geigy Corporation, priority 1987, dated 1990)

What was measured:
DBA/2 mice = test: audiogenic-induced seizures in DBA/2 mice; format: in vivo; settings: Mus musculus, ip, 0.75 h, i.p. administration, read-out: ED50 in the audiogenic-induced seizure model
Experimental: Further indicative of the anticonvulsant activity, compounds of the invention are effective in preventing audiogenic-induced seizures in DBA/2 mice (Chapman et al., Arzneim.-Forsch. 34:1261, 1984).
The effect is determined as follows:
Forty-five minutes following compound or vehicle administration, mice are placed individually in a soundproof chamber. After a 30 second accommodation period, the mice are exposed to a sound stimulation of 110 dB for 1 minute or until the appearance of a tonic-clonic seizure. Control seizures consist of an initial wild running phase. The prevention of wild running is indicative of an anticonvulsant effect.
Test compounds in either distilled water solution or in a 3% (w/v) colloidal cornstarch suspension containing 5% (w/v) polyethyleneglycol 400 and 0.34% (w/v) Tween 80, are administered by oral intubation or intraperitoneally in a volume of 10 ml/kg of body weight.

[1] = system: NMDA-type excitatory amino acid receptors; test: inhibition of NMDA-evoked 3H-acetylcholine release from rat striatal tissue slices; format: cell-based; settings: stimulation with 50 uM NMDA, read-out: IC50 in the in vitro NMDA-evoked 3H-ACh release test
Experimental: The inhibitory effect on the NMDA-type excitatory amino acid receptors is determined in vitro by measuring the inhibition of the NMDA-evoked ^3 H-acetylcholine (^3 H-ACh) release from corpus striatum tissue of rat brain, according to J. Lehmann and B. Scatton, Brain Research 252, 77-89 (1982) and Nature 297, 422-424 (1982).
Antagonists of NMDA-type excitatory amino acid receptors competitively antagonize NMDA-evoked ^3 H-acetylcholine (^3 H-ACh) release from corpus striatum tissue of the brain.
The inhibition of the NMDA-evoked ^3 H-acetylcholine (^3 H-ACh) release from rat striatal tissue slices by a compound of the invention is expressed as % of release of ^3 H-ACh in response to stimulation with 50 uM NMDA compared to control. Tests are two-tailed with a minimum of n=4 in each group. In IC50 values represent the concentration of test compound required to inhibit the NMDA-increased ^3 H-ACh release by 50%.

[2] = relative pharmacological activity of enantiomers (test not specified); settings: enantiomers of the compound of Example 2
[3] = Cook/Davidson conflict model for anxiolytic activity; format: in vivo; settings: ip; read-out: dose active in the Cook/Davidson test for anxiolytic activity
Source text: Indicative of anxiolytic activity, compounds of the invention are effective in the Cook/Davidson conflict model (Psychopharmacologia 15, 159-168 (1969).

mongolian gerbil = mongolian gerbil ischemia model; format: in vivo; settings: 10 mg/Kg ip, administered either before or after the ischemia episode
Source text: The cerebral antiischemic activity, that is the effect of the compounds of the invention in preventing or reducing brain damage in mammals due to a transient cerebral ischemia (as in a stroke) can be determined in the mongolian gerbil ischemia model, e.g. the model described by T. Kirino, Brain Research 239, 57-69 (1982).
The inhibitory effect on the observed hyperactivity and on the degeneration of neurons in the hippocampus region of the brain following a 5-minute period of ischemia is measured.
The test compound is administered i.p. 15 minutes before the ischemia or 2, 4, and 6 hours post ischemia.

## O=C(O)[C@@H]1C[C@H](CP(=O)(O)O)CCN1 (relative stereo) [cis-4-phosphonomethyl-2-piperidinecarboxylic acid hyrdochloride]
DBA/2 mice
  ED50: ~1.8 mg/kg
[1]
  IC50: ~8 µM

## O=C(O)[C@H]1C[C@@H](CP(=O)(O)O)CCN1 (single isomer, unassigned) [(-)-cis-4-phosphonomethyl-2-piperidinecarboxylic acid]
[2]
  pharmacological activity relative to the other enantiomer: more active enantiomer

## O=C(O)[C@H]1C[C@@H](CP(=O)(O)O)CCN1 (single isomer, unassigned) [(+)-cis-4-phosphonomethyl-2-piperidinecarboxylic acid]
[2]
  pharmacological activity relative to the other enantiomer: less active enantiomer

## O=C(O)[C@H]1C[C@@H](CP(=O)(O)O)CCN1 (relative stereo) [cis-4-phosphonomethyl-2-piperidine-carboxylic acid]
[3]
  minimal effective dose: ~2 mg/kg
Mongolian gerbil
  effect on degeneration of cerebral neurons in the hippocampus region of the brain: reduces the degeneration of cerebral neurons
  effect on ischemia-induced hyperactivity of the gerbil: inhibits the ischemia-induced hyperactivity
